Laboratory results published in ChEMBL document CHEMBL4725308, “MK-5204: An orally active β-1,3-glucan synthesis inhibitor” (Bioorg Med Chem Lett, 2020).
≈ marks a conversion by molar mass, not a printed value.

Legend:
[1] = Clearance in dog; format: ADME, Canis lupus familiaris; conditions: in vivo
[2] = Half life in rat; format: ADME; conditions: in vivo
Candida albicans [3] = test: Antifungal activity against Candida albicans MY1055 infected in DBA/2N mouse model assessed as mouse survival at 6.5 mg/kg, po bid for 7 days and measured post-last dose by TOKA relative to control; format: functional; conditions: 168 h, time 7 day
Aspergillus fumigatus [4] = test: Antifungal activity against Aspergillus fumigatus MF5668 infected in DBA/2N mouse assessed as mean survival days at 12.5 mg/kg, ip bid administered for 7 days starting from 30 mins post infection and measured up to 21 days relative to control; format: functional; conditions: time 7 day
Candida albicans [5] = test: Antifungal activity against Candida albicans MY1055 infected in DBA/2 mouse model assessed as log change in colony forming units in kidney at 6.5 mg/kg, po bid for 2 days and measured after 4 days by TOKA; format: functional; conditions: time 2 day
Aspergillus fumigatus [6] = test: Antifungal activity against Aspergillus fumigatus MF5668 infected in DBA/2N mouse assessed as mouse survival at 1.56 mg/kg, ip bid administered for 7 days starting from 30 mins post infection and measured up to 21 days relative to control; format: functional; conditions: 168 h, time 7 day
Aspergillus fumigatus [7] = test: Antifungal activity against Aspergillus fumigatus MF5668 infected in DBA/2N mouse assessed as mean survival days at 1.56 mg/kg, ip bid administered for 7 days starting from 30 mins post infection and measured up to 21 days relative to control; format: functional; conditions: time 7 day
Candida albicans [8] = test: Antifungal activity against Candida albicans MY1055 infected in DBA mouse model assessed as log change in colony forming units in kidney at 12.5 mg/kg, po bid for 2 days and measured after 4 days by TOKA; format: functional; conditions: time 2 day
Candida albicans [9] = test: Antifungal activity against Candida albicans MY1055 assessed as fungal growth inhibition measured after 24 hrs in presence of mouse serum by liquid microdilution method; format: functional
Aspergillus fumigatus [10] = test: Antifungal activity against Aspergillus fumigatus MF5668 infected in DBA/2N mouse assessed as mouse survival at 3.125 mg/kg, ip bid administered for 7 days starting from 30 mins post infection and measured up to 21 days relative to control; format: functional; conditions: 168 h, time 7 day
Candida albicans [11] = test: Antifungal activity against Candida albicans MY1055 infected in DBA/2 mouse model assessed as log change in colony forming units in kidney at 25 mg/kg, po bid for 2 days and measured after 4 days by TOKA; format: functional; conditions: time 2 day
[12] = Half lie in mouse; format: ADME, organism-based; conditions: in vivo
[13] = Oral bioavailability in rhesus monkey; format: ADME, organism-based, Macaca mulatta; conditions: in vivo
[14] = Oral bioavailability in mouse; format: ADME, organism-based; conditions: in vivo
Aspergillus fumigatus [15] = test: Antifungal activity against Aspergillus fumigatus MF5668 infected in DBA/2N mouse assessed as mean survival days at 3.125 mg/kg, ip bid administered for 7 days starting from 30 mins post infection and measured up to 21 days relative to control; format: functional; conditions: time 7 day
Candida parapsilosis = test: Antifungal activity against Candida parapsilosis ATCC 22019 assessed as fungal growth inhibition; format: functional; conditions: Lodderomyces parapsilosis
Clavispora lusitaniae = test: Antifungal activity against Clavispora lusitaniae MY1396 assessed as fungal growth inhibition; format: functional
[16] = Half life in dog; format: ADME, Canis lupus familiaris; conditions: in vivo
Candida albicans [17] = test: Antifungal activity against Candida albicans MY1055 infected in DBA/2N mouse model administered for 7 days by TOKA; format: functional; conditions: MY1055, 168 h, time 7 day
[18] = Clearance in rhesus monkey; format: ADME, Macaca mulatta; conditions: in vivo
Aspergillus fumigatus [19] = test: Antifungal activity against Aspergillus fumigatus MF5668 infected in DBA/2N mouse assessed as mouse survival at 12.5 mg/kg, ip bid administered for 7 days starting from 30 mins post infection and measured up to 21 days relative to control; format: functional; conditions: 168 h, time 7 day
Aspergillus fumigatus [20] = test: Antifungal activity against Aspergillus fumigatus MF5668 infected in DBA/2N mouse assessed as mean survival days at 6.25 mg/kg, ip bid administered for 7 days starting from 30 mins post infection and measured up to 21 days relative to control; format: functional; conditions: time 7 day
Nakaseomyces glabratus = test: Antifungal activity against Candida glabrata MY1381 assessed as fungal growth inhibition; format: functional
[21] = Clearance in rat; format: ADME; conditions: in vivo
[22] = Oral bioavailability in dog; format: ADME, organism-based, Canis lupus familiaris; conditions: in vivo
[23] = Inhibition of beta-1,3-glucan synthase in Candida albicans MY1055 microsomal membrane using UDP-[3H]-glucose as substrate incubated for 2 hrs in presence of UTP by radioactivity-based assay; format: cell membranes
Aspergillus fumigatus [24] = test: Antifungal activity against Aspergillus fumigatus MF5668 assessed as fungal growth inhibition measured after 24 hrs by liquid microdilution method; format: functional; conditions: read-out: MEC
Pichia kudriavzevii = test: Antifungal activity against Candida krusei ATCC 6258 assessed as fungal growth inhibition; format: functional
Candida albicans [25] = test: Antifungal activity against Candida albicans MY1055 infected in DBA/2N mouse model assessed as mouse survival at 25 mg/kg, po bid for 7 days and measured post-last dose by TOKA relative to control; format: functional; conditions: 168 h, time 7 day
[26] = Oral bioavailability in rat; format: ADME, organism-based; conditions: in vivo
Candida albicans [27] = test: Antifungal activity against Candida albicans MY1055 infected in DBA/2N mouse model assessed as mouse survival at 12.5 mg/kg, ip bid for 7 days and measured post-last dose by TOKA relative to control; format: functional; conditions: 168 h, time 7 day
[28] = Half life in rhesus monkey; format: ADME, Macaca mulatta; conditions: in vivo
Aspergillus fumigatus [29] = test: Antifungal activity against Aspergillus fumigatus MF5668 infected in DBA/2N mouse assessed as mouse survival at 6.25 mg/kg, ip bid administered for 7 days starting from 30 mins post infection and measured up to 21 days relative to control; format: functional; conditions: 168 h, time 7 day
Candida albicans [30] = test: Antifungal activity against Candida albicans MY1055 assessed as fungal growth inhibition measured after 24 hrs by liquid microdilution method; format: functional
Candida albicans [31] = test: Antifungal activity against Candida albicans MY1055 infected in DBA/2N mouse model assessed as mouse survival at 12.5 mg/kg, po bid for 7 days and measured post-last dose by TOKA relative to control; format: functional; conditions: 168 h, time 7 day
[32] = Clearance in mouse; format: ADME, organism-based; conditions: in vivo
Candida tropicalis = test: Antifungal activity against Candida tropicalis MY1012 assessed as fungal growth inhibition; format: functional

## CC(C)[C@@H](C)[C@@]1(C)CC[C@]2(C)[C@H]3CC[C@@H]4[C@@]5(COC[C@]4(C)[C@@H](OC[C@](C)(N)C(C)(C)C)[C@H](n4ncnc4C(N)=O)C5)C3=CC[C@@]2(C)[C@@H]1C(=O)O
[1]
  clearance: 2 mL/min/kg
[2]
  half-life: 5.5 h
Candida albicans [3]
  survival at 6.5 mg/kg: 100%
Aspergillus fumigatus [4]
  MSD: 14.4 days
Candida albicans [5]
  Activity: -1.5 log CFU
Aspergillus fumigatus [6]
  survival at 1.56 mg/kg: 0%
Aspergillus fumigatus [7]
  MSD: 6.5 days
Candida albicans [8]
  Activity: -2.5 log CFU
Candida albicans [9]
  MIC: 2 µg/mL
Aspergillus fumigatus [10]
  survival at 3.125 mg/kg: 10%
Candida albicans [11]
  Activity: -2.2 log CFU
[12]
  half-life: 5.1 h
[13]
  bioavailability: 12%
[14]
  bioavailability: 12%
Aspergillus fumigatus [15]
  MSD: 7.3 days
Candida parapsilosis
  MIC: 0.06 µg/mL (≈ 0.0862 µM)
Clavispora lusitaniae
  MIC: 0.125 µg/mL (≈ 0.18 µM)
[16]
  half-life: 12.3 h
Candida albicans [17]
  ED99: 6.4 mg/kg
[18]
  clearance: 4 mL/min/kg
Aspergillus fumigatus [19]
  survival at 12.5 mg/kg: 60%
Aspergillus fumigatus [20]
  MSD: 12.5 days
Nakaseomyces glabratus
  MIC: 0.125 µg/mL (≈ 0.18 µM)
[21]
  clearance: 6 mL/min/kg
[22]
  bioavailability: 35%
[23]
  IC50: 0.003 µg/mL
Aspergillus fumigatus [24]
  minimal effective concentration: < 0.03 µg/mL
Pichia kudriavzevii
  MIC: 1 µg/mL (≈ 1.44 µM)
Candida albicans [25]
  survival at 25 mg/kg: 80%
[26]
  bioavailability: 17%
Candida albicans [27]
  survival at 12.5 mg/kg: 100%
[28]
  half-life: 8.5 h
Aspergillus fumigatus [29]
  survival at 6.25 mg/kg: 40%
Candida albicans [30]
  MIC: 0.06 µg/mL (≈ 0.0862 µM)
Candida albicans [31]
  survival at 12.5 mg/kg: 100%
[32]
  clearance: 11 mL/min/kg
Candida tropicalis
  MIC: 0.5 µg/mL (≈ 0.718 µM)

## CC(C)[C@@H](C)[C@@]1(C)CC[C@]2(C)[C@H]3CC[C@@H]4[C@@]5(COC[C@]4(C)[C@@H](OC[C@H](N)C(C)(C)C)[C@H](n4ncnc4C(N)=O)C5)C3=CC[C@@]2(C)[C@@H]1C(=O)O
Candida albicans [5]
  Activity: -1.9 log CFU
Candida albicans [8]
  Activity: -1.7 log CFU
Candida albicans [9]
  MIC: 8 µg/mL
Candida albicans [11]
  Activity: -2.6 log CFU
[14]
  bioavailability: 10%
[23]
  IC50: 0.008 µg/mL
Aspergillus fumigatus [24]
  minimal effective concentration: < 0.03 µg/mL
Candida albicans [30]
  MIC: 0.25 µg/mL (≈ 0.367 µM)

## CC(C)NC(=O)c1ncnn1[C@@H]1C[C@@]23COC[C@@](C)([C@@H]2CC[C@H]2C3=CC[C@@]3(C)[C@H](C(=O)O)[C@@](C)([C@H](C)C(C)C)CC[C@]23C)[C@H]1OC[C@](C)(N)C(C)C
Candida albicans [5]
  Activity: -0.4 log CFU
Candida albicans [8]
  Activity: -1.8 log CFU
Candida albicans [9]
  MIC: 16 µg/mL
Candida albicans [11]
  Activity: -2.3 log CFU
[14]
  bioavailability: 10%
[23]
  IC50: 0.01 µg/mL
Aspergillus fumigatus [24]
  minimal effective concentration: < 0.03 µg/mL
Candida albicans [30]
  MIC: 0.25 µg/mL (≈ 0.345 µM)

## CC(C)[C@@H](C)[C@@]1(C)CC[C@]2(C)[C@H]3CC[C@@H]4[C@@]5(COC[C@]4(C)[C@@H](OC[C@](C)(N)C(C)C)[C@H](n4ncnc4C(=O)N(C)C)C5)C3=CC[C@@]2(C)[C@@H]1C(=O)O
Candida albicans [5]
  Activity: -1 log CFU
Candida albicans [8]
  Activity: -1.3 log CFU
Candida albicans [9]
  MIC: 8 µg/mL
Candida albicans [11]
  Activity: -2.4 log CFU
[14]
  bioavailability: 16%
[23]
  IC50: 0.009 µg/mL
Aspergillus fumigatus [24]
  minimal effective concentration: < 0.03 µg/mL
Candida albicans [30]
  MIC: 0.25 µg/mL (≈ 0.352 µM)

## CC(C)[C@@H](C)[C@@]1(C)CC[C@]2(C)[C@H]3CC[C@@H]4[C@@]5(COC[C@]4(C)[C@@H](OC[C@](C)(N)C(C)C)[C@H](n4ncnc4Br)C5)C3=CC[C@@]2(C)[C@@H]1C(=O)O
Candida albicans [5]
  Activity: -0.2 log CFU
Candida albicans [8]
  Activity: -1.7 log CFU
Candida albicans [9]
  MIC: 8 µg/mL
Candida albicans [11]
  Activity: -2.3 log CFU
[14]
  bioavailability: 33%
[23]
  IC50: 0.002 µg/mL
Aspergillus fumigatus [24]
  minimal effective concentration: < 0.03 µg/mL
Candida albicans [30]
  MIC: 0.5 µg/mL (≈ 0.697 µM)

## CC(C)[C@@H](C)[C@@]1(C)CC[C@]2(C)[C@H]3CC[C@@H]4[C@@]5(COC[C@]4(C)[C@@H](OC[C@](C)(N)C(C)C)[C@H](n4ncnc4C(N)=O)C5)C3=CC[C@@]2(C)[C@@H]1C(=O)O
Candida albicans [5]
  Activity: -0.9 log CFU
Candida albicans [8]
  Activity: -0.2 log CFU
Candida albicans [9]
  MIC: 2 µg/mL
Candida albicans [11]
  Activity: -2.5 log CFU
[14]
  bioavailability: 7%
[23]
  IC50: 0.005 µg/mL
Aspergillus fumigatus [24]
  minimal effective concentration: < 0.03 µg/mL
Candida albicans [30]
  MIC: < 0.03 µg/mL

## CC(C)[C@@H](C)[C@@]1(C)CC[C@]2(C)[C@H]3CC[C@@H]4[C@@]5(COC[C@]4(C)[C@@H](OC[C@](C)(N)C(C)C)[C@H](n4ncnc4C(=O)NC4CC4)C5)C3=CC[C@@]2(C)[C@@H]1C(=O)O
Candida albicans [5]
  Activity: -0.8 log CFU
Candida albicans [8]
  Activity: -0.9 log CFU
Candida albicans [9]
  MIC: 16 µg/mL
Candida albicans [11]
  Activity: -2.1 log CFU
[14]
  bioavailability: 30%
[23]
  IC50: 0.005 µg/mL
Aspergillus fumigatus [24]
  minimal effective concentration: < 0.03 µg/mL
Candida albicans [30]
  MIC: 0.25 µg/mL (≈ 0.346 µM)
